Measured values reported in US12186359B2, “Composition containing branched-chain amino acids” (priority 2019, dated 2025).
Peptide text beside a SMILES is read from it.

Conditions: mouse, in vivo
Protocol: The aim of the study was to compare the exposure of L-Leucine-13C6, 15N, L-Isoleucine-13C6, 15N, L-Valine-13C5, 15N in plasma after their administration alone or in association with L-Alanine or L-Alanyl-L-alanine in the mouse. Plasma samples were analyzed by dean-up and derivatization using the EZfaast™ amino acid analysis kit (Phenomenex) and analyzed by UPLC-MSMS.
CD1 mouse with body weights of 25-30 gr at the time of the treatment were used in this study, approximate age was about 4 weeks according to growth curve. The animals were originally supplied by Harlan, Italy. Once receipt from the supplier, the animals were subjected to health examinations and acceptance. The animals were housed, in a group of five, in cages suitable for the species. The animals were acclimatized to local housing conditions for approximately 5 days. The animals were routinely kept in the following environment except for short periods of time where experimental procedures dictated otherwise. The animals were housed in a single, exclusive room, air conditioned to provide a minimum of 15 air changes/hour. […] Clinical signs were monitored at regular intervals throughout the study in order to assess any reaction to treatment. […]

Plasma concentrations of the labelled amino acids (AUC0-24 h), rank among groups: highest concentrations
Structure (SMILES): C[C@H](N)C(=O)N[C@@H](C)C(=O)O [L-Alanyl-L-alanine] (H-Ala-Ala-OH)
